Among the test systems are TK-10 renal; UACC-62 melanoma; DU-145 prostate; KM12 colon; HCC-2998 colon; SF-539 CNS; MDA-MB-231 breast; IGROV1 ovarian; HCT-116 colon; UACC-257 melanoma.
Assay in all cases: DTP human tumour cell line panel, 48 h

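Results reflect a 48-hour exposure of cells in 96-well plates to compound at five concentrations. At the TGI there is no net growth.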 Bounds are passed on as bounds.

On to `CN(CCN(C)Cc1ccc(Cl)c(Cl)c1)CCN1CCCC1`, for which the concentration for total growth inhibition (TGI) in the experiment with TK-10 renal was > 100 µM; in the experiment on UACC-62 melanoma, 7.47 µM; in the experiment on DU-145 prostate, > 100 µM; in the experiment on KM12 colon, > 100 µM; in the experiment with HCC-2998 colon it was 32.2 µM; in the experiment with SF-539 CNS it was > 59.7 µM. Also, the TGI in the experiment on MDA-MB-231 breast was > 96.1 µM; with IGROV1 ovarian, > 79.1 µM; in the experiment with HCT-116 colon, > 57.8 µM; with UACC-257 melanoma it was 23.9 µM.
For `CSc1nc(NC2CC2)c2c(n1)Sc1nc3ccccc3n1N=C2`, the TGI in the experiment with TK-10 renal is 62.4 µM; with UACC-62 melanoma it was 76.9 µM; in the experiment on DU-145 prostate it was 46.1 µM; with KM12 colon, > 100 µM; in the experiment with HCC-2998 colon, > 100 µM; with SF-539 CNS it was 27.4 µM. Besides, the TGI in the experiment with MDA-MB-231 breast is 48.9 µM; in the experiment with IGROV1 ovarian it was > 100 µM; in the experiment on HCT-116 colon it was 27.4 µM; in the experiment on UACC-257 melanoma, > 100 µM.
Consider `O=C(NCCc1ccc(F)cc1)c1cc(/C=C/c2cc(O)ccc2O)ccc1O`, for which the total growth inhibition concentration (TGI) stood at 5.64 µM in the experiment on TK-10 renal; 4.85 µM in the experiment on UACC-62 melanoma; 33.2 µM in the experiment with DU-145 prostate; 38 µM with KM12 colon; 26 µM in the experiment with HCC-2998 colon; 5.84 µM in the experiment with SF-539 CNS. Moreover, the TGI with MDA-MB-231 breast came out at 10.5 µM; in the experiment with IGROV1 ovarian, 7.66 µM; in the experiment on HCT-116 colon, 3.94 µM; in the experiment on UACC-257 melanoma it was 6.52 µM.
Turning to `COc1cc(C(C)(C)C)c(OC(=O)/C=C/C(=O)O/C=C/[N+](=O)[O-])c(C(C)(C)C)c1`, the TGI in the experiment on TK-10 renal was > 100 µM; in the experiment on UACC-62 melanoma, > 100 µM; in the experiment with DU-145 prostate, > 100 µM; in the experiment with KM12 colon it was 38.5 µM; with HCC-2998 colon, > 100 µM; with SF-539 CNS, > 100 µM. Further, the total growth inhibition concentration (TGI) is 82.1 µM with MDA-MB-231 breast, > 100 µM with IGROV1 ovarian, > 100 µM with HCT-116 colon and > 100 µM in the experiment on UACC-257 melanoma.
Consider `COC(=O)/C=C1\C(=O)N(C(C)=O)c2ccccc21`, for which the TGI is 21.7 µM in the experiment on TK-10 renal; 18.4 µM with UACC-62 melanoma; 24.1 µM with DU-145 prostate; 29.2 µM in the experiment with KM12 colon; 31.4 µM in the experiment on HCC-2998 colon; > 46.4 µM in the experiment on SF-539 CNS. In addition, the total growth inhibition concentration (TGI) with MDA-MB-231 breast turned out to be 21.3 µM; with IGROV1 ovarian, 22.4 µM; in the experiment with HCT-116 colon it was 31.2 µM; in the experiment with UACC-257 melanoma, 22.2 µM.
For the compound `O=C1NC(N2CCOCC2)=N/C1=C\c1ccccc1`, the concentration for total growth inhibition (TGI) with TK-10 renal, in the experiment on UACC-62 melanoma, with DU-145 prostate, with KM12 colon, with HCC-2998 colon and with SF-539 CNS was > 100 µM throughout. The TGI in the experiment with MDA-MB-231 breast, with IGROV1 ovarian, in the experiment on HCT-116 colon and in the experiment on UACC-257 melanoma was > 100 µM in each case.
`CCOC(=O)C(C(N)=O)c1nc2cc([N+](=O)[O-])ccc2nc1/C=C(\O)c1ccc(C)cc1` (stereo not given): the TGI with TK-10 renal was 30.2 µM; in the experiment on UACC-62 melanoma, > 72.3 µM; in the experiment with DU-145 prostate, > 100 µM; in the experiment with KM12 colon, > 100 µM; in the experiment with HCC-2998 colon, 62.7 µM; in the experiment on SF-539 CNS it was 36.5 µM. The TGI was 46.7 µM in the experiment on MDA-MB-231 breast, 43 µM with IGROV1 ovarian, 55.4 µM in the experiment on HCT-116 colon and > 100 µM with UACC-257 melanoma.
Take `CCCCOP(=O)(OCCCC)C(NS(=O)(=O)c1ccccc1)(C(=O)OCC)C(F)(F)F` (stereo not given): the TGI in the experiment with TK-10 renal is 87.6 µM; with UACC-62 melanoma, > 100 µM; in the experiment with DU-145 prostate, > 100 µM; with KM12 colon it was 93.2 µM; in the experiment with HCC-2998 colon it was > 100 µM; with SF-539 CNS it was 38.3 µM. For the same compound, the total growth inhibition concentration (TGI) came out at 36.7 µM with MDA-MB-231 breast, 65.6 µM in the experiment on IGROV1 ovarian, 66.9 µM in the experiment on HCT-116 colon and 79.3 µM in the experiment with UACC-257 melanoma.
In the case of `O=C(NC12CC3CC(CC(C3)C1)C2)n1cnc2cncnc21`, the total growth inhibition concentration (TGI) in the experiment with TK-10 renal was > 100 µM; in the experiment with UACC-62 melanoma, > 100 µM; in the experiment with DU-145 prostate it was > 100 µM; with KM12 colon, > 100 µM; in the experiment on HCC-2998 colon, > 100 µM; in the experiment on SF-539 CNS, 54.5 µM. For the same compound, the TGI in the experiment on MDA-MB-231 breast was > 100 µM; with IGROV1 ovarian it was 98 µM; in the experiment on HCT-116 colon, > 100 µM; in the experiment on UACC-257 melanoma, > 100 µM.
Turning to `Cc1cc(C)c2c(=O)n(CC(O)CN3CCN(c4ncccn4)CC3)sc2n1` (stereo not given), the TGI with TK-10 renal stood at 32.1 µM; in the experiment on UACC-62 melanoma, 31.6 µM; with DU-145 prostate it was 30.2 µM; with KM12 colon, 44.6 µM; with HCC-2998 colon it was 32.9 µM; in the experiment with SF-539 CNS it was 31.6 µM. The total growth inhibition concentration (TGI) with MDA-MB-231 breast is 31.3 µM; in the experiment with IGROV1 ovarian it was > 100 µM; in the experiment on HCT-116 colon it was 29 µM; in the experiment on UACC-257 melanoma, 30.4 µM.
As to `CO/C=C(/C(=O)OC)c1ccccc1[C@H]1C[C@@H]1c1ccc(OC)cc1`, the TGI in the experiment with TK-10 renal was > 100 µM; in the experiment with UACC-62 melanoma it was 64.7 µM; in the experiment on DU-145 prostate, > 100 µM; in the experiment with KM12 colon it was 68.8 µM; in the experiment on HCC-2998 colon it was 42.7 µM; in the experiment with SF-539 CNS, 38 µM. In addition, the TGI in the experiment with MDA-MB-231 breast was 94.2 µM; in the experiment on IGROV1 ovarian, 45.5 µM; in the experiment with HCT-116 colon, 44.5 µM; in the experiment with UACC-257 melanoma it was 72.8 µM.
For the compound `CCOC(=O)Cn1c(=O)c2cc(C)cc3c(Cl)nc4c(OC)c(OC)cc1c4c32`, the TGI in the experiment on TK-10 renal, in the experiment on UACC-62 melanoma, in the experiment with DU-145 prostate, in the experiment with KM12 colon, in the experiment with HCC-2998 colon and with SF-539 CNS was > 100 µM throughout. The TGI in the experiment with MDA-MB-231 breast, with IGROV1 ovarian, in the experiment with HCT-116 colon and in the experiment with UACC-257 melanoma was > 100 µM each time.
With `CS(=O)(=O)c1nc(-c2cc3c(c(S(C)(=O)=O)n2)CCC3)cc2c1CCC2`, the TGI in the experiment with TK-10 renal, in the experiment with UACC-62 melanoma, in the experiment on DU-145 prostate, with KM12 colon, with HCC-2998 colon and with SF-539 CNS was > 100 µM throughout. Also, the concentration for total growth inhibition (TGI) in the experiment on MDA-MB-231 breast is > 100 µM; in the experiment on IGROV1 ovarian, 85.1 µM; in the experiment with HCT-116 colon, > 100 µM; in the experiment with UACC-257 melanoma, > 100 µM.

The record behind these values is PubChem BioAssay (NCI).
